Counter-ions that a name gives are not always drawn.
How the values were obtained:
GLS expressing 293 cells = assay: OCR in 293 cells with forced GLS expression; assay type: cell-based; conditions: 50 μM
Description: FIG. 14B presents exemplary data showing OCR measurements on FACS sorted control (LacZ) or GLS expressing cells following DMSO or 50 μM meclizine addition at time 0 min (n=4).
Glutaminase full length cDNA (Open Biosystems, Accession #BCO38507) was amplified using proof-reading TAQ polymerase (Accuprime, Invitrogen) with primers which included attb1 and attb2 sites for subsequent subcloning into pDONR 221 vector (Invitrogen). Partial Kozak sequence was included in the 5′ primer and stop codon was eliminated in the 3′ primer. The sequences of forward (F) and reverse primers (R) are—5′-GGGGACAAGTTTGTACAAAAAAGCAGGCTCCACCATGATGCGGCTGCGAGGCTC-3′ (SEQ ID NO: 2); and 5′-GGGGACCACTTTGTACAAGAAAGCTGGGTCCAACAATCCATCAAGATTCT-3′ (SEQ ID NO: 3), respectively. Resulting PCR fragment was cloned into Gateway entry vector pDONR 221 (Invitrogen) with BP clonase using STBL2 E. coli competent cells (Invitrogen). Subsequently, it was subcloned into destination vector pcDNA6.2-EMGFP-DEST with LR clonase and was sequenced verified. The 293 cells were transfected with the pcDNA6.2-GLS-GFP and the control vector pcDNA6.2-LacZ-GFP using Fugene (Roche) reagent. GLS expression was confirmed by Western blot using anti-GLS antibody. FACS sorted transfected cells were subjected to meclizine treatment followed by OCR and ECAR measurements.

caspase 3 and caspase 7 = assay: Western blot of cleaved caspase 3 and 7 after serum withdrawal; assay type: cell-based, murine; conditions: 50 μM, up to 24 hours after serum withdrawal
Description: Western blot analysis was performed as follows. Murine STH^Q111/111 striatal cells expressing mutant huntingtin protein were grown to ˜75% confluency in 15 cm cell culture plate. Then serum containing medium was replaced with serum free media with either 0.1% DMSO or 50 μM meclizine and total protein was extracted at 0, 4, 10 and 24 hours post serum withdrawal and drug treatment in cell lysis buffer (Cell Signaling Cat No. 9803).
Protein concentration was determined using BCA protein assay kit (Thermo Scientific Cat No. 23227). SDS PAGE was performed using NuPAGE 4-12% Bis-Tris gel from Invitrogen (NP0321). 15 μg of protein was loaded per lane. Western blotting was performed as per the standard procedures. Cleaved Caspase 3 (Cat. No. 9661), Cleaved Caspase 7 (Cat. No. 9491), p-ERK ([…]; Cat No. 9803), and AKT (Cat. No. 9803) antibodies were obtained from Cell Signaling. β-Actin antibody was purchased from Sigma (A1978).

[1] = system: STHdhQ111/111 striatal cells; assay: Viability of mutant huntingtin striatal cells after serum withdrawal (CellTiter-Glo); assay type: cell-based, murine
Description: Wherever indicated, mutant (STHdh^Q111/111) striatal cells were grown in serum free media for ˜24 hours before ATP measurement. Luminescence was measured in DTX880 multimode detector. Multiple concentrations (between 100 μM and 0.5 μM) of rotenone, antimycin, oligomycin, meclizine, hydroxyzine (Spectrum chemical), thiethylperazine (Prestwick), cyproheptadine (Sigma), pyrilamine (Spectrum chemical), tripelennamine (Spectrum chemical), diphenhydramine (Spectrum chemical), clemastine (Prestwick), bromopheniramine (Spectrum chemical), pheniramine (Spectrum chemical), promethazine (MSDiscovery 01500510), atropine (Sigma), and scopolamine (Sigma) were tested for their protective effect on STHdh^Q111/111 cells in serum free media. The dose which conferred maximum protection is shown. Luminescence was measured in DTX880 multimode detector.
Although it is not necessary to understand the mechanism of an invention, it is believed that the observed cell survival may be due to suppressed apoptosis based on caspase 3 and 7 cleavage. Improved cell viability was confirmed by microscopy.

C2C12 myotubes = assay: [3H]-2-deoxyglucose uptake; assay type: cell-based; conditions: 50 micromolar, four hours
Description: Fully differentiated C2C12 myotubes were subjected to a glucose uptake protocol, as follows. Briefly, C2C12 myotube cells were incubated for four hours in serum-free media containing either 0.1% DMSO as a control, 50 micromolar meclizine, 50 micromolar S-meclizine, or 2 mM metformin. Cells were subsequently incubated for thirty minutes in serum and glucose free buffer and then transitioned to buffer containing [3H]-2-deoxyglucose for five minutes. After multiple wash steps, cells were lysed and the lysate was subjected to scintillation counting to quantify uptake. Data were prepared as raw counts per minute, which is proportional to 2-deoxyglucose uptake.

[2] = system: isolated, ex vivo, hearts; assay: Ischemia-reperfusion in isolated ex vivo retrograde-perfused (Langendorf) hearts; conditions: compared to untreated controls
Description: The effect of meclizine in isolated, ex vivo, hearts was assessed using retrograde-perfused hearts and the Langendorf heart (Nadtochiy et al., Biochem. J., 395:611-618 (2006)). Hearts were then subjected to a period of ischemia followed by reperfusion.

[3] = system: UAS-Htt-Q128/elav-GAL4 flies; assay: Transgenic Drosophila melanogaster model of Huntington's disease; assay type: in vivo; conditions: 33 μM, 10 days
Description: Meclizine was also tested in a transgenic insect model of Huntington's disease in which the first 548 amino acids of human Htt (containing 128 glutamines) was expressed in the […] of Drosophila melanogaster. The UAS-Htt-Q0 and UAS-Htt-[…] lines encoding the first 548 amino acids of human Htt containing either 0 or 128 glutamines, respectively (7), were gifts from Troy Littleton. The elav-GAL4 driver was from the Bloomington Stock Center (#8765). The UAS-Htt-[…] line was crossed to elav-GAL4/CyO to obtain […] flies. Equal numbers of newly enclosed UAS-[…] flies were added to vials containing Carolina Biological Instant Fly food that had been freshly made up with water and meclizine or DMSO vehicle at different concentrations (100, 33, 11 or 3 μM). Flies were changed to fresh food and drug every 2 days and were maintained at 25° C. throughout the experiment. Neurodegeneration was assessed using the pseudopupil technique at day 10 by scoring the rhabdomere number/ommatidium from at least 8 animals for each condition; see Jackson et al., Neuron 21:633 (1998). The experiment was performed twice and scoring was conducted in a blinded manner. Western blot analysis using mouse anti-human HD (mAb2216 from Chemicon, Temecula, Calif.) was performed using lysates from UAS-[…] adult flies that had been fed on either meclizine or DMSO at 33 μM for 10 days.

Cc1cccc(CN2CCN(C(c3ccccc3)c3ccc(Cl)cc3)CC2)c1 (racemic) [Meclizine, meclizine hydrochloride]
oxygen consumption with constitutive GLS expression (GLS expressing 293 cells): continued to suppress oxygen consumption
serum deprivation-induced activation of caspase 3 and caspase 7 (caspase 3 and caspase 7): prevented
EC50 ([1]; Mus musculus, STHdhQ111, 24 hours after removal of serum, read-out: EC50 of cell survival (rescue)): ~17.3 µM
protection of STHdhQ111/111 cells after serum withdrawal ([1]; serum free media, 24 hours): conferred the most protection
basal glucose uptake (C2C12 myotubes): promoted increased basal glucose uptake
infarct size (heart) [2]: smaller infarct size
rate pressure after I/R [2]: increase in rate pressure
transgenic protein expression (flies) [3]: did not influence
rhabdomere loss ([3]; compared to DMSO): did protect against rhabdomere loss

— US9399032B2, “Methods and compositions for treating degenerative and ischemic disorders” (The General Hospital Corporation, priority 2009, dated 2016)
